# Experimental data: ChEMBL document CHEMBL4371037, “5-Substituted-N-pyridazinylbenzamides as potent and selective LRRK2 inhibitors: Improved brain unbound fraction enables efficacy” (Bioorg Med Chem Lett, 2019)
# Columns and labels:
# [1] = Lipophilicity, log D of the compound at pH 7.4 by chromatographic method; format: physicochemical; conditions: buffer
# [2] = Intrinsic clearance in human liver microsomes; format: ADME, Microsome
# [3] = Drug level in naive rat blood at 5 mg/kg, iv administered as bolus dose followed by 5 ml/kg/hr iv infusion for 4 hrs; format: ADME, organism-based; conditions: read-out: Drug uptake
# [4] = Drug level in naive rat brain at 5 mg/kg, iv administered as bolus dose followed by 5 ml/kg/hr iv infusion for 4 hrs; format: ADME, organism-based; conditions: read-out: Drug uptake
# [5] = Drug level in naive rat kidney at 5 mg/kg, iv administered as bolus dose followed by 5 ml/kg/hr iv infusion for 4 hrs; format: ADME, organism-based; conditions: read-out: Drug uptake
# [6] = Drug level in naive rat spleen at 5 mg/kg, iv administered as bolus dose followed by 5 ml/kg/hr iv infusion for 4 hrs; format: ADME, organism-based; conditions: read-out: Drug uptake
# [7] = Brain to blood partition coefficient, Kp of the compound in naive rat at 5 mg/kg, iv administered as bolus dose followed by 5 ml/kg/hr iv infusion for 4 hrs; format: ADME, organism-based
# [8] = Unbound brain-to-plasma concentration ratio in naive rat at 5 mg/kg, iv administered as bolus dose followed by 5 ml/kg/hr iv infusion for 4 hrs; format: ADME, organism-based; conditions: read-out: K(p,uu,brain)
SMILES,chromatographic logD [1],CLH [2],other results
O=C(Nc1ccnnc1)c1cc(N2CCC(CO)CC2)ccc1OCc1ccccc1,3.5,1 mL/min/g,–
O=C(Nc1ccnnc1)c1cc(N2CCOCC2)ccc1OCc1ccccc1,4.1,2.1 mL/min/g,concentration at 4 h [3]: 1130 ng/mL; concentration at 4 h [4]: 1630 ng/g; concentration at 4 h [5]: 3970 ng/g; concentration at 4 h [6]: 1680 ng/g; Kp at 4 h [7]: 1.44; Kp uu at 4 h [8]: 0.51
N#Cc1cccc(NC(=O)c2cc(C(F)(F)F)ccc2OCc2ccc(F)cc2)c1,7.5,–,–
O=C(Nc1cccc(Cl)c1)c1cc(C(F)(F)F)ccc1OCc1ccc(F)cc1,8.7,–,–
O=C(Nc1ccnnc1)c1cc(C(F)(F)F)ccc1OCc1ccccc1,5.4,–,–
COCCN1CCN(c2ccc(OCc3ccccc3)c(C(=O)Nc3ccnnc3)c2)CC1,3.8,1.3 mL/min/g,–
O=C(Nc1ccnnc1)c1cc(N2CC(F)(F)C2)ccc1OCc1ccccc1,5.1,9.5 mL/min/g,–
O=C(Nc1cccc(F)c1)c1cc(C(F)(F)F)ccc1OCc1ccc(F)cc1,8.2,–,–
O=C(Nc1ccnnc1)c1cc(N2CCC(O)CC2)ccc1OCc1ccccc1,3.2,0.6 mL/min/g,–
CN1CC2(CCN(c3ccc(OCc4ccccc4)c(C(=O)Nc4ccnnc4)c3)CC2)C1,2.2,–,–
O=C(Nc1ccnnc1)c1cc(N2CCC(F)CC2)ccc1OCc1ccccc1,5.1,5.5 mL/min/g,–
COCCN1CCC(c2ccc(OCc3ccccc3)c(C(=O)Nc3ccnnc3)c2)CC1,2.9,< 0.78 mL/min/g,–
O=C(Nc1ccnnc1)c1cc(N2CCNCC2)ccc1OCc1ccccc1,1.9,0.4 mL/min/g,–
N#CC1CCN(c2ccc(OCc3ccccc3)c(C(=O)Nc3ccnnc3)c2)CC1,4.5,5.5 mL/min/g,–
CN1CCC(c2ccc(OCc3ccccc3)c(C(=O)Nc3ccnnc3)c2)CC1,2.3,–,–
O=C(Nc1cccc(Cl)c1)c1cc(C(F)(F)F)ccc1OCc1ccccc1,8.8,–,–
CN1CCN(c2ccc(OCc3ccccc3)c(C(=O)Nc3ccnnc3)c2)CC1,3,1.6 mL/min/g,–
C[C@@H]1COCCN1c1ccc(OCc2ccccc2)c(C(=O)Nc2ccnnc2)c1,4.5,–,–
O=C(Nc1ccnnc1)c1cc(N2C[C@H]3COC[C@H]3C2)ccc1OCc1ccccc1,4.5,4.3 mL/min/g,–
O=C(Nc1ccnnc1)c1cc(N2CCCCC2)ccc1OCc1ccccc1,6.3,–,–
O=C(Nc1ccnnc1)c1cc(N2CCCC2)ccc1OCc1ccccc1,6.1,9.8 mL/min/g,–
CN1CC2(C1)CN(c1ccc(OCc3ccccc3)c(C(=O)Nc3ccnnc3)c1)C2,2,–,–
O=C(Nc1ccnnc1)c1cc(N2CC(F)C2)ccc1OCc1ccccc1,4.4,11.8 mL/min/g,–
O=C(Nc1cccnc1)c1cc(C(F)(F)F)ccc1OCc1ccccc1,6.3,–,–
O=C(Nc1cccnc1)c1cc(C(F)(F)F)ccc1OCc1ccc(F)cc1,6.3,–,–
C[C@@H]1CN(c2ccc(OCc3ccccc3)c(C(=O)Nc3ccnnc3)c2)C[C@H](C)O1,5.4,2.2 mL/min/g,–
